{"source": "the Deep4Chem optical property database", "test": "solvent given as SMILES"}
{"smiles": "CCCCCCCCc1ccc(-c2c3cc(-c4cc(CCCCCCCC)c(-c5ccc(-c6sc(/C=C7\\SC(SCC)=NC7=O)cc6CCCCCCCC)s5)s4)sc3c(-c3ccc(CCCCCCCC)s3)c3cc(-c4cc(CCCCCCCC)c(-c5ccc(-c6sc(/C=C7\\SC(SCC)=NC7=O)cc6CCCCCCCC)s5)s4)sc23)s1", "values": [{"measurement": "emission maximum", "setting": "in ClC(Cl)Cl", "result": 653, "unit": "nm"}]}
{"smiles": "Cn1c(=O)c(-c2ccccc2)nc2ccccc21", "values": [{"measurement": "emission maximum", "setting": "in c1ccccc1", "result": 424, "unit": "nm"}]}
{"smiles": "c1ccc(-c2nc(-c3ccccc3)nc(-c3ccc(-n4c5ccccc5c5cc(-c6ccc7c(c6)c6ccccc6n7-c6ccccc6)ccc54)cc3)n2)cc1", "values": [{"measurement": "emission maximum", "setting": "in O=P(c1ccccc1)(c1ccccc1)c1ccccc1Oc1ccccc1P(=O)(c1ccccc1)c1ccccc1", "result": 458.07, "unit": "nm"}]}
{"smiles": "Oc1ccc(C2=N[N+]3=Cc4c(ccc5ccccc45)O[B-]3(c3ccc([B-]45OC(c6ccc(O)cc6)=N[N+]4=Cc4c(ccc6ccccc46)O5)cc3)O2)cc1", "note": "(stereo unspecified)", "values": [{"measurement": "emission maximum", "setting": "in C1CCOC1", "result": 477, "unit": "nm"}]}
{"smiles": "COC(=O)c1nc(-c2ccccc2)oc1C", "values": [{"measurement": "emission maximum", "setting": "in C1CCCCC1", "result": 297, "unit": "nm"}, {"measurement": "emission maximum", "setting": "in CC#N", "result": 322, "unit": "nm"}, {"measurement": "emission maximum", "setting": "in CCO", "result": 324, "unit": "nm"}, {"measurement": "emission maximum", "setting": "in CCOC(C)=O", "result": 318, "unit": "nm"}, {"measurement": "emission maximum", "setting": "in O", "result": 328, "unit": "nm"}]}
{"smiles": "c1ccc2c(c1)-c1ccccc1C21c2ccccc2-c2oc3c(c21)C1(c2ccccc2-c2ccccc21)c1ccccc1-3", "values": [{"measurement": "emission maximum", "setting": "in C1CCOC1", "result": 393, "unit": "nm"}]}
{"smiles": "Fc1cc(-c2ccc(-c3nc4ccccc4[nH]3)cc2)ccc1-c1ccc(-c2nc3ccccc3[nH]2)cc1", "values": [{"measurement": "emission maximum", "setting": "in CN(C)C=O", "result": 414, "unit": "nm"}]}
{"smiles": "CC(C)[Si](C#Cc1c2nc3c(nc2c(C#C[Si](C(C)C)(C(C)C)C(C)C)c2nc4ccccc4nc12)C1c2ccccc2C3c2ccccc21)(C(C)C)C(C)C", "values": [{"measurement": "emission maximum", "setting": "in CCCCCC", "result": 563, "unit": "nm"}]}
{"smiles": "CCCCOc1cc2ccccc2c2c1oc1cc3ccccc3cc12", "values": [{"measurement": "emission maximum", "setting": "in C1CCOC1", "result": 381, "unit": "nm"}]}
{"smiles": "CN(C)c1ccc(C2=CC3=C(c4ccc(C#N)cc4)[C@H]4c5ccccc5[C@]3(S2)c2ccccc24)cc1", "values": [{"measurement": "emission maximum", "setting": "in ClCCl", "result": 599, "unit": "nm"}]}
{"smiles": "CC(C)(C)c1cc(-c2c3cccc4c5cccc6c(-c7cc(C(C)(C)C)cc(C(C)(C)C)c7)c7cccc8c9cccc2c9c(c34)c(c65)c78)cc(C(C)(C)C)c1", "values": [{"measurement": "emission maximum", "setting": "in Cc1ccccc1", "result": 701, "unit": "nm"}]}
{"smiles": "Cc1cc(C)c(B(c2c(C)cc(C)cc2C)c2cc3cc(N(C)C)c4ccccc4c3c3c2ccc2ccccc23)c(C)c1", "values": [{"measurement": "emission maximum", "setting": "in C1CCCCC1", "result": 509, "unit": "nm"}, {"measurement": "emission maximum", "setting": "in C1CCOC1", "result": 553, "unit": "nm"}, {"measurement": "emission maximum", "setting": "in CC#N", "result": 565, "unit": "nm"}, {"measurement": "emission maximum", "setting": "in ClC(Cl)Cl", "result": 536, "unit": "nm"}, {"measurement": "emission maximum", "setting": "in c1ccccc1", "result": 539, "unit": "nm"}]}
{"smiles": "C[Si](C)(C)C#C[Si](c1c2ccccc2cc2ccccc12)(c1c2ccccc2cc2ccccc12)c1c2ccccc2cc2ccccc12", "values": [{"measurement": "emission maximum", "setting": "in ClC(Cl)Cl", "result": 438, "unit": "nm"}]}
{"smiles": "CN(C)c1cc(-c2ccc(C#Cc3ccncc3)cc2)cc2ccccc12", "values": [{"measurement": "emission maximum", "setting": "in CC#N", "result": 417.83, "unit": "nm"}, {"measurement": "emission maximum", "setting": "in CCO", "result": 411.74, "unit": "nm"}, {"measurement": "emission maximum", "setting": "in ClCCl", "result": 536, "unit": "nm"}]}
{"smiles": "FC(F)(F)c1ccc(/C2=C3N=C(C(c4ccccc4)=C/3c3ccccc3)/C(c3ccc(C(F)(F)F)cc3)=c3\\[nH]/c(c(-c4ccccc4)c3-c3ccccc3)=C(/c3ccc(C(F)(F)F)cc3)C3=N/C(=C(/c4ccc(C(F)(F)F)cc4)c4[nH]c2c(-c2ccccc2)c4-c2ccccc2)C(c2ccccc2)=C3c2ccccc2)cc1", "values": [{"measurement": "emission maximum", "setting": "in ClCCl", "result": 730, "unit": "nm"}]}
{"smiles": "CN1/C(=C\\C=C\\C2=C3C=CC(c4ccccc4)=[N+]3[B-](F)(F)n3c2ccc3-c2ccccc2)Sc2ccccc21", "values": [{"measurement": "emission maximum", "setting": "in CC#N", "result": 727, "unit": "nm"}]}
{"smiles": "O=C1CC(=O)Nc2cc(Br)ccc2N1", "values": [{"measurement": "emission maximum", "setting": "in CS(C)=O", "result": 350, "unit": "nm"}]}
{"smiles": "CCCCc1cc(-c2cccc(COC)c2)oc1-c1cccc(-c2oc(-c3cccc(COC)c3)cc2CCCC)c1", "values": [{"measurement": "emission maximum", "setting": "in ClC(Cl)Cl", "result": 371, "unit": "nm"}]}
{"smiles": "c1ccc(-c2nc(-c3ccccc3)nc(-c3ccc(-n4c5ccc(-n6c7ccccc7c7ccccc76)cc5c5ccc6c(c7ccccc7n6-c6ccccc6)c54)cc3)n2)cc1", "values": [{"measurement": "emission maximum", "setting": "in Cc1ccccc1", "result": 463.87, "unit": "nm"}]}
{"smiles": "c1ccc(N(c2ccccc2)c2ccc(-c3cnc(-c4ccncc4)s3)cc2)cc1", "values": [{"measurement": "emission maximum", "setting": "in CO", "result": 566, "unit": "nm"}]}
{"smiles": "CC1=N/C(=C\\c2ccccc2N)C(=O)N1C", "values": [{"measurement": "emission maximum", "setting": "in C1CCCCC1", "result": 451, "unit": "nm"}, {"measurement": "emission maximum", "setting": "in C1CCOC1", "result": 513, "unit": "nm"}, {"measurement": "emission maximum", "setting": "in CC#N", "result": 453, "unit": "nm"}, {"measurement": "emission maximum", "setting": "in CO", "result": 454, "unit": "nm"}, {"measurement": "emission maximum", "setting": "in CS(C)=O", "result": 530, "unit": "nm"}, {"measurement": "emission maximum", "setting": "in ClCCl", "result": 452, "unit": "nm"}, {"measurement": "emission maximum", "setting": "in O", "result": 452, "unit": "nm"}]}
{"smiles": "C(=C\\c1ccc(-c2nnc(-c3ccccc3)o2)cc1)/c1ccc(-c2nnc(-c3ccccc3)o2)cc1", "values": [{"measurement": "emission maximum", "setting": "in CN(C)C=O", "result": 415, "unit": "nm"}]}
{"smiles": "COc1ccc(C#Cc2c3ccccc3c3n2[B-](F)(F)[N+]2=C(C)C=C(C)C2=C3)cc1", "values": [{"measurement": "emission maximum", "setting": "in CCCCCC", "result": 620, "unit": "nm"}, {"measurement": "emission maximum", "setting": "in CCCCCCCCO", "result": 629, "unit": "nm"}, {"measurement": "emission maximum", "setting": "in CCOC(C)=O", "result": 623, "unit": "nm"}, {"measurement": "emission maximum", "setting": "in CN(C)C=O", "result": 630, "unit": "nm"}, {"measurement": "emission maximum", "setting": "in ClCCl", "result": 633, "unit": "nm"}]}
{"smiles": "CCCCCCCCCCOc1cc(OCCCCCCCCCC)cc(C2=C3C(C)=CC(/C=C/c4ccc(OC)cc4)=[N+]3[B-](F)(F)n3c(/C=C/c4ccc(OC)cc4)cc(C=Cc4ccc(OC)cc4)c32)c1", "values": [{"measurement": "emission maximum", "setting": "in ClC(Cl)Cl", "result": 682, "unit": "nm"}]}
{"smiles": "CCN(CC)c1ccc2cc(/C=C/C3=CC(/C=C/c4cc5ccc(N(CC)CC)cc5oc4=O)=[O+][B-](F)(F)O3)c(=O)oc2c1", "values": [{"measurement": "emission maximum", "setting": "in CC#N", "result": 725, "unit": "nm"}, {"measurement": "emission maximum", "setting": "in CC(C)=O", "result": 710, "unit": "nm"}, {"measurement": "emission maximum", "setting": "in CCOC(C)=O", "result": 659, "unit": "nm"}, {"measurement": "emission maximum", "setting": "in CN(C)C=O", "result": 729, "unit": "nm"}, {"measurement": "emission maximum", "setting": "in CS(C)=O", "result": 741, "unit": "nm"}, {"measurement": "emission maximum", "setting": "in Cc1ccccc1", "result": 626, "unit": "nm"}, {"measurement": "emission maximum", "setting": "in ClC(Cl)Cl", "result": 669, "unit": "nm"}, {"measurement": "emission maximum", "setting": "in ClCCl", "result": 705, "unit": "nm"}]}
{"smiles": "Cc1c(C)c(N2c3ccccc3CCc3ccccc32)c(C)c(C)c1-c1nc(-c2ccccc2)nc(-c2ccccc2)n1", "values": [{"measurement": "emission maximum", "setting": "in Cc1ccccc1", "result": 457.94, "unit": "nm"}]}
{"smiles": "c1ccc(N(c2ccccc2)c2ccc3ccc4c(N(c5ccccc5)c5ccccc5)ccc5ccc2c3c54)cc1", "values": [{"measurement": "emission maximum", "setting": "in Cc1ccccc1", "result": 458, "unit": "nm"}, {"measurement": "emission maximum", "setting": "in ClCCl", "result": 472, "unit": "nm"}]}
{"smiles": "c1cc2oc3cccc4oc5cccc6oc(c1)c2[c+](c34)c65", "values": [{"measurement": "emission maximum", "setting": "in CC#N", "result": 524, "unit": "nm"}]}
